From the NIST ThermoML archive (doi:10.1021/acs.jced.7b00712)

Conditions: Brillouin light scattering

CC(C)CC(C)(C)C [2,2,4-trimethylpentane]
Conditions	speed of sound [m/s]
294.06 K, 100 kPa, Liquid	1099.7
294.37 K, 3000 kPa, Liquid	1127.4
294.65 K, 6000 kPa, Liquid	1147.6
294.84 K, 10000 kPa, Liquid	1176.1
294.97 K, 12000 kPa, Liquid	1181.7
304.03 K, 100 kPa, Liquid	1058.5
304.16 K, 3000 kPa, Liquid	1088.2
304.23 K, 6000 kPa, Liquid	1109.6
304.27 K, 10000 kPa, Liquid	1136.9
304.27 K, 12000 kPa, Liquid	1147.7
313.81 K, 100 kPa, Liquid	1017.3
313.82 K, 10000 kPa, Liquid	1100.1
313.85 K, 12000 kPa, Liquid	1110.8
313.92 K, 3000 kPa, Liquid	1037.2
313.96 K, 6000 kPa, Liquid	1065.2
323.56 K, 100 kPa, Liquid	978.2
323.61 K, 3000 kPa, Liquid	999.1
323.65 K, 6000 kPa, Liquid	1027.4
323.67 K, 10000 kPa, Liquid	1060.4
323.71 K, 12000 kPa, Liquid	1075.4
333.4 K, 12000 kPa, Liquid	1041.9
333.42 K, 100 kPa, Liquid	938.5
333.46 K, 10000 kPa, Liquid	1028
333.48 K, 3000 kPa, Liquid	968
333.5 K, 6000 kPa, Liquid	996
342.88 K, 100 kPa, Liquid	898
343.07 K, 3000 kPa, Liquid	927.9
343.16 K, 6000 kPa, Liquid	954.8
343.21 K, 12000 kPa, Liquid	1008.5
343.22 K, 10000 kPa, Liquid	990.3
352.86 K, 100 kPa, Liquid	858.9
352.89 K, 3000 kPa, Liquid	891.7
352.94 K, 6000 kPa, Liquid	921.1
353.01 K, 10000 kPa, Liquid	961.7
353.04 K, 12000 kPa, Liquid	975.5
363.39 K, 3000 kPa, Liquid	852.2
363.49 K, 6000 kPa, Liquid	883.5
363.54 K, 10000 kPa, Liquid	925.7
363.55 K, 100 kPa, Liquid	821.9
363.58 K, 12000 kPa, Liquid	943.8
373.04 K, 3000 kPa, Liquid	821.1
373.27 K, 6000 kPa, Liquid	843.9
373.41 K, 10000 kPa, Liquid	888.2
373.49 K, 12000 kPa, Liquid	908.6
383.18 K, 3000 kPa, Liquid	783.2
383.8 K, 6000 kPa, Liquid	813.8
384.11 K, 10000 kPa, Liquid	855.6
384.26 K, 12000 kPa, Liquid	876.5
393.83 K, 3000 kPa, Liquid	742.3
394 K, 6000 kPa, Liquid	782.2
394.15 K, 10000 kPa, Liquid	825.8
394.19 K, 12000 kPa, Liquid	848.1
402.16 K, 3000 kPa, Liquid	716.5
402.48 K, 6000 kPa, Liquid	750.9
402.64 K, 10000 kPa, Liquid	800.2
402.78 K, 12000 kPa, Liquid	819.5
412.57 K, 3000 kPa, Liquid	677.6
412.84 K, 6000 kPa, Liquid	719.3
413.07 K, 10000 kPa, Liquid	766.7
413.22 K, 12000 kPa, Liquid	791.3
423.95 K, 3000 kPa, Liquid	636.8
424.32 K, 6000 kPa, Liquid	678.1
424.49 K, 10000 kPa, Liquid	732.1
424.59 K, 12000 kPa, Liquid	756.7
434.51 K, 3000 kPa, Liquid	602.6
434.94 K, 6000 kPa, Liquid	647.4
435.26 K, 10000 kPa, Liquid	701
435.36 K, 12000 kPa, Liquid	726.5
443.7 K, 3000 kPa, Liquid	569.7
444 K, 6000 kPa, Liquid	619.6
444.22 K, 10000 kPa, Liquid	677.1
444.36 K, 12000 kPa, Liquid	700.3
452.94 K, 3000 kPa, Liquid	538.4
453.22 K, 6000 kPa, Liquid	588.3
454.37 K, 10000 kPa, Liquid	648.8
455.24 K, 12000 kPa, Liquid	671.1
462.54 K, 3000 kPa, Liquid	502.1
463.04 K, 6000 kPa, Liquid	558.9
463.43 K, 10000 kPa, Liquid	622.7
463.72 K, 12000 kPa, Liquid	651.6
472.45 K, 3000 kPa, Liquid	464.2
472.86 K, 6000 kPa, Liquid	530.7
473.22 K, 10000 kPa, Liquid	596.3
473.48 K, 12000 kPa, Liquid	627.7
483.15 K, 3000 kPa, Liquid	423.5
483.63 K, 6000 kPa, Liquid	496.7
484.05 K, 10000 kPa, Liquid	569.9
484.3 K, 12000 kPa, Liquid	598.4
493.12 K, 3000 kPa, Liquid	386.4
493.56 K, 6000 kPa, Liquid	464.9
494.09 K, 10000 kPa, Liquid	542.2
494.42 K, 12000 kPa, Liquid	576.5
502.8 K, 3000 kPa, Liquid	350.1
503.17 K, 6000 kPa, Liquid	435.4
503.79 K, 10000 kPa, Liquid	516.1
504.09 K, 12000 kPa, Liquid	550.4
512.41 K, 3000 kPa, Liquid	311.4
513.04 K, 6000 kPa, Liquid	404
513.78 K, 10000 kPa, Liquid	491.8
514.01 K, 12000 kPa, Liquid	526.6
523.31 K, 3000 kPa, Liquid	264.5
523.97 K, 6000 kPa, Liquid	371.4
524.59 K, 10000 kPa, Liquid	463
524.7 K, 12000 kPa, Liquid	501.3
543.28 K, 3000 kPa, Fluid (supercritical or subcritical phases)	159
543.47 K, 4000 kPa, Fluid (supercritical or subcritical phases)	233.1
543.63 K, 5000 kPa, Fluid (supercritical or subcritical phases)	282.2
